Assay results: PubChem BioAssay (NCI)
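These data come from cells grown in 96-well plates and exposed to compound for 48 hours at five concentrations. GI50: concentration for 50% inhibition of growth. TGI: total growth inhibition.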

Legend:
Test in all cases: NCI anticancer screen, dose series, 48 h
DU-145 prostate = system: DU-145 prostate
HS 578T breast = system: HS 578T breast
LOX IMVI melanoma = system: LOX IMVI melanoma
HCC-2998 colon = system: HCC-2998 colon
HCT-15 colon = system: HCT-15 colon
MDA-MB-231 breast = system: MDA-MB-231 breast
SW-620 colon = system: SW-620 colon
OVCAR-5 ovarian = system: OVCAR-5 ovarian
MALME-3M melanoma = system: MALME-3M melanoma
SK-OV-3 ovarian = system: SK-OV-3 ovarian
TK-10 renal = system: TK-10 renal
KM12 colon = system: KM12 colon
CCRF-CEM leukemia = system: CCRF-CEM leukemia
SF-268 CNS = system: SF-268 CNS
HL-60(TB) leukemia = system: HL-60(TB) leukemia
SR leukemia = system: SR leukemia
SNB-75 CNS = system: SNB-75 CNS
NCI-H460 lung = system: NCI-H460 lung
MCF7 breast = system: MCF7 breast
EKVX NSCLC = system: EKVX NSCLC
MOLT-4 leukemia = system: MOLT-4 leukemia
SF-295 CNS = system: SF-295 CNS
OVCAR-8 ovarian = system: OVCAR-8 ovarian
UACC-62 melanoma = system: UACC-62 melanoma
PC-3 prostate = system: PC-3 prostate
ACHN renal = system: ACHN renal
786-0 renal = system: 786-0 renal
SK-MEL-28 melanoma = system: SK-MEL-28 melanoma
OVCAR-4 ovarian = system: OVCAR-4 ovarian
HT29 colon = system: HT29 colon
NCI-H522 lung = system: NCI-H522 lung
A498 renal = system: A498 renal
A549 NSCLC = system: A549 NSCLC
K-562 leukemia = system: K-562 leukemia
RXF 393 renal = system: RXF 393 renal
T-47D breast = system: T-47D breast
RPMI-8226 leukemia = system: RPMI-8226 leukemia
M14 melanoma = system: M14 melanoma
HOP-92 NSCLC = system: HOP-92 NSCLC
SK-MEL-5 melanoma = system: SK-MEL-5 melanoma
NCI-H23 lung = system: NCI-H23 lung
BT-549 breast = system: BT-549 breast
OVCAR-3 ovarian = system: OVCAR-3 ovarian
HCT-116 colon = system: HCT-116 colon
CAKI-1 renal = system: CAKI-1 renal
SN12C renal = system: SN12C renal
SF-539 CNS = system: SF-539 CNS
NCI-H226 lung = system: NCI-H226 lung
SK-MEL-2 melanoma = system: SK-MEL-2 melanoma
COLO 205 colon = system: COLO 205 colon
NCI/ADR-RES ovarian = system: NCI/ADR-RES ovarian
UO-31 renal = system: UO-31 renal
IGROV1 ovarian = system: IGROV1 ovarian
SNB-19 CNS = system: SNB-19 CNS
U251 CNS = system: U251 CNS
HOP-62 NSCLC = system: HOP-62 NSCLC

Question: What does the source list for `COc1ccc2cc(-c3ccoc(=O)c3-c3cc(OC)c(OC)c(OC)c3)ccc2c1`?
Answer: GI50 (DU-145 prostate): 188 nM; TGI (DU-145 prostate): > 100000 nM; GI50 (HS 578T breast): 134 nM; TGI (HS 578T breast): > 100000 nM; GI50 (LOX IMVI melanoma): 1150 nM; TGI (LOX IMVI melanoma): > 100000 nM; GI50 (HCC-2998 colon): 74.4 nM; TGI (HCC-2998 colon): 426 nM; GI50 (HCT-15 colon): 59 nM; TGI (HCT-15 colon): > 100000 nM; GI50 (MDA-MB-231 breast): 148 nM; TGI (MDA-MB-231 breast): > 100000 nM; GI50 (SW-620 colon): 45.5 nM; TGI (SW-620 colon): > 100000 nM; GI50 (OVCAR-5 ovarian): 369 nM; TGI (OVCAR-5 ovarian): > 100000 nM; GI50 (MALME-3M melanoma): > 100000 nM; TGI (MALME-3M melanoma): > 100000 nM; GI50 (SK-OV-3 ovarian): 389 nM; TGI (SK-OV-3 ovarian): > 100000 nM; TGI (TK-10 renal): > 100000 nM; GI50 (KM12 colon): 23.8 nM; GI50 (CCRF-CEM leukemia): 84.2 nM; TGI (CCRF-CEM leukemia): > 100000 nM; GI50 (SF-268 CNS): 626 nM; TGI (SF-268 CNS): > 100000 nM; GI50 (HL-60(TB) leukemia): 35.3 nM; TGI (HL-60(TB) leukemia): 793 nM; GI50 (SR leukemia): 30.1 nM; GI50 (SNB-75 CNS): 97.7 nM; TGI (SNB-75 CNS): > 100000 nM; GI50 (NCI-H460 lung): 52.6 nM; TGI (NCI-H460 lung): > 32000 nM; GI50 (MCF7 breast): 32.2 nM; TGI (MCF7 breast): > 57500 nM; GI50 (EKVX NSCLC): 566 nM; TGI (EKVX NSCLC): > 100000 nM; GI50 (MOLT-4 leukemia): 161 nM; TGI (MOLT-4 leukemia): > 51100 nM; GI50 (SF-295 CNS): 45 nM; GI50 (OVCAR-8 ovarian): 334 nM; TGI (OVCAR-8 ovarian): > 100000 nM; GI50 (UACC-62 melanoma): 53.6 nM; TGI (UACC-62 melanoma): > 100000 nM; GI50 (PC-3 prostate): 52.1 nM; TGI (PC-3 prostate): > 100000 nM; GI50 (ACHN renal): 1480 nM; TGI (ACHN renal): > 100000 nM; GI50 (786-0 renal): 201 nM; TGI (786-0 renal): > 100000 nM; GI50 (SK-MEL-28 melanoma): 683 nM; TGI (SK-MEL-28 melanoma): > 100000 nM; GI50 (OVCAR-4 ovarian): 1160 nM; TGI (OVCAR-4 ovarian): > 100000 nM; GI50 (HT29 colon): 38.3 nM; TGI (HT29 colon): 22500 nM; GI50 (NCI-H522 lung): 20.6 nM; TGI (NCI-H522 lung): 113 nM; GI50 (A498 renal): 72.3 nM; GI50 (A549 NSCLC): 77.5 nM; TGI (A549 NSCLC): > 100000 nM; GI50 (K-562 leukemia): 34.6 nM; TGI (K-562 leukemia): > 39400 nM; GI50 (RXF 393 renal): 28 nM; TGI (RXF 393 renal): > 100000 nM; GI50 (T-47D breast): 77.2 nM; TGI (T-47D breast): > 100000 nM; GI50 (RPMI-8226 leukemia): 218 nM; TGI (RPMI-8226 leukemia): 13400 nM; GI50 (M14 melanoma): 68.1 nM; TGI (M14 melanoma): > 100000 nM; GI50 (HOP-92 NSCLC): 2490 nM; TGI (HOP-92 NSCLC): > 100000 nM; GI50 (SK-MEL-5 melanoma): 37.9 nM; TGI (SK-MEL-5 melanoma): 4100 nM; GI50 (NCI-H23 lung): 141 nM; GI50 (BT-549 breast): 232 nM; TGI (BT-549 breast): > 100000 nM; GI50 (OVCAR-3 ovarian): 31.6 nM; TGI (OVCAR-3 ovarian): > 100000 nM; GI50 (HCT-116 colon): 44 nM; GI50 (CAKI-1 renal): 98.6 nM; TGI (CAKI-1 renal): > 100000 nM; GI50 (SN12C renal): 639 nM; TGI (SN12C renal): > 100000 nM; GI50 (SF-539 CNS): 266 nM; TGI (SF-539 CNS): > 100000 nM; GI50 (NCI-H226 lung): 6690 nM; TGI (NCI-H226 lung): > 100000 nM; GI50 (SK-MEL-2 melanoma): 75.2 nM; TGI (SK-MEL-2 melanoma): > 100000 nM; GI50 (COLO 205 colon): 44.9 nM; TGI (COLO 205 colon): 212 nM; GI50 (NCI/ADR-RES ovarian): 52.8 nM; TGI (NCI/ADR-RES ovarian): > 100000 nM; GI50 (UO-31 renal): 100 nM; TGI (UO-31 renal): > 100000 nM; GI50 (IGROV1 ovarian): 33.9 nM; TGI (IGROV1 ovarian): > 20600 nM; GI50 (SNB-19 CNS): 125 nM; TGI (SNB-19 CNS): > 100000 nM; GI50 (U251 CNS): 112 nM; TGI (U251 CNS): > 100000 nM; GI50 (HOP-62 NSCLC): 270 nM; TGI (HOP-62 NSCLC): > 100000 nM
